Assay [1] relates to AMPA receptors. As to the kind of experiment: AMPA ES Cell FLIPR Screen, G7330A (single dose % effect). The class given is cell-based, murine. As to conditions: Dose 32.0 uM; mean (range and n in cells below); ES cell-derived neurons, 32 uM AMPA challenge; negative control AMPA alone, positive control AMPA plus cyclothiazide. How it is done:
(§1) The murine ES cell line used was E14-Sx1-16C, which has a targeted mutation in the Sox1 gene, a neuroectodermal marker, that offers G418 resistance when the Sox1 gene is expressed (Stem Cell Sciences). ES cells were maintained undifferentiated as previously described (Roach). […] ES cells were plated on gelatin-coated dishes (BD Biosciences), the media was changed daily and the cells were dissociated with 0.05% Trypsin EDTA (Invitrogen) every other day.
(§2) Embryoid Body Formation: Prior to embryoid body (EB) formation the ES cells were weaned from FBS onto Knockout Serum Replacement (KSR) (Invitrogen). To form EBs, ES cells were dissociated into a single cell suspension then 3×10^6 cells were plated in bacteriology dishes (Nunc 4014) and grown as a suspension culture in NeuroEB-I medium that consisted of Knockout™ D-MEM (Invitrogen), supplemented with 10% KSR (Invitrogen), 0.2 mM L-Glutamine (Invitrogen), 0.1 mM MEM non-essential amino acids (Invitrogen), 30 μg/ml Gentamicin (Invitrogen), 1000 u/ml ESGRO (Chemicon), 0.1 mM 2-Mercaptoethanl (Sigma) and 150 ng/ml Transferrin (Invitrogen). The plates were put on a Stovall Belly Button shaker in an atmospheric oxygen incubator. The media was changed on day 2 of EB formation with NeuroEB-I and on day 4 with NeuroEB-II (NeuroEB-I plus 1 μg/ml mNoggin [R&D Systems]).
(§3) Neuronal Precursor Selection and Expansion: On day 5 of EB formation, EBs were dissociated with 0.05% Trypsin EDTA, and 4×10^6 cells/100 mm dish were plated on Laminin coated tissue culture dishes in NeuroII-G418 medium that consisted of a base medium of a 1:1 mixture of D-MEM/F12 supplemented with N2 supplements and NeuroBasal Medium supplemented with B27 supplement and 0.1 mM L-Glutamine (all from Invitrogen). The base medium was then supplemented with 10 ng/ml bFGF (Invitrogen), 1 μg/ml mNoggin, 500 ng/ml SHH-N, 100 ng/ml FGF-8b (R&D Systems), 1 μg/ml Laminin and 200 μg/ml G418 (Invitrogen) for selection of neuronal precursors expressing Sox-1. The plates were put in an incubator that contained 2% Oxygen and were maintained in these conditions. During the 6-day selection period, the NeuroII media was changed daily. On day 6, the surviving neuronal precursor foci were dissociated with 0.05% Trypsin EDTA and the cells were plated at a density of 1.5×10^6 cells/100 mm Laminin coated dish in NeuroII-G418 medium. The cells were dissociated every other day for expansion, and prepared for Cryopreservation at passage 3 or 4. The cryopreservation medium contained 50% KSR, 10% Dimethyl Sulfoxide (DMSO) (Sigma) and 40% NeuroI-G418I medium. Neuronas precursors were crypreserved at a concentration of 4×10^6cells/ml and 1 ml/cryovial in a controlled rate freezer overnight then transferred to an ultra-low freezer or liquid nitrogen for long-term storage,
(§4) Neuronal Differentiation: Cryopreserved ES cell-derived neuronal precursors were thawed by the rapid thaw method in a 37-degree water-bath. The cells were transferred from the cryovial to a 100 mm Laminin coated tissue culture dish that already contained NeuroII-G418 that had been equilibrated in a 2% Oxygen incubator. The media was changed with fresh NeuroII-G418 the next day. The cells were dissociated every other day as described above for expansion to generate enough cells to plate for the screen. For the screen, the cells were plated into 384-well poly-d-lysine coated tissue culture dishes (BD Biosciences) by the automated SelecT at a cell density of 6K cells/well in differentiation medium NeuroIII that contained a 4:1 ratio of the NeuroBasalMedium/B27:D-MEM/F12/N2 supplemented with 1 μM cAMP (Sigma), 200 μM Ascorbic Acid (Sigma), 1 μg/ml Laminin (Invitrogen) and 10 ng/ml BDNF (R&D Systems). The plates were put in an incubator with 2% Oxygen and allowed to complete the differentiation process for 7 days. The cells could then be used over a 5-day period for the high throughput screen.
(§5) Procedure for AMPA ES Cell FLIPR Screen […]

Assay [2] relates to AMPA receptors. Put plainly: AMPA ES Cell FLIPR Screen, G7330B (EC50 and % effect). The class given is cell-based, murine. As to conditions: for EC50: ES cell-derived neurons, 32 uM AMPA challenge. The method, then:
as §1, §2, §3, §4, §5

[3] abbreviates: Dose 32.0 uM, individual determinations.
[4] abbreviates: individual determinations, read-out: G7330B (U): EC50.
Where [5] appears, read: mean of individual determinations (range and n in cells below), read-out: G7330B mean EC50.
Where [6] appears, read: Dose 31.6 uM, individual determinations.

Data on 18 molecules can be found in patent publication US20100035865A1, “Sulfonamides and Pharmaceutical Compositions Thereof” (PFIZER INC, priority 2007, published 2010).

Values joined by “and” are separate entries in the source; they are usually repeats but may differ in a detail not shown here. Equal entries are not always repeated. Where two headings read alike, the source gives them in different places. Bounds are passed on as bounds.

What is called EC50 is the concentration giving half of the maximal effect. Turning to `CS(=O)(=O)N[C@@H]1CNCC[C@H]1c1ccc(-c2ccccc2)cc1` (relative stereo) [Example 8, N-(trans-4-Biphenyl-4-yl-piperidin-3-yl)-methanesulfonamide], the “G7330A: % Effect” value in the assay with AMPA receptors [1] amounted to 56.3%. For the same molecule, the “G7330B (U): % Effect” value with AMPA receptors [2] (setting [3]) was 62.1% and 46.9% and 54.7% and 34.7% and 36.6% and 38.0%. For the same molecule, the EC50 in the assay with AMPA receptors [2] (setting [4]) and with AMPA receptors [2] (setting [5]) was greater than 32 µM each time.
Take `O=S(=O)(NC1CNCCC1c1ccc(-c2ccccc2)cc1)C1CC1` (stereo not drawn) [Example 14, Cyclopropanesulfonic acid(trans-4-biphenyl-4-yl-piperidin-3-yl)-amide]: the “G7330A: % Effect” value with AMPA receptors [1] was found to be 3.36%. Further, the “G7330B (U): % Effect” value in the assay on AMPA receptors [2] (setting [3]) is 4.61% and 2.97% and 3.26% and 0.0952% and 0.150% and 1.02%. For the same molecule, the EC50 in the assay on AMPA receptors [2] (setting [4]) and with AMPA receptors [2] (setting [5]) was greater than 32 µM in each case.
On to `O=S(=O)(CC(F)(F)F)NC1CNCCC1c1ccc(-c2ccccc2)cc1` (stereo not drawn) [Example 13, 2,2,2-Trifluoro-ethanesulfonic acid(trans-4-biphenyl-4-yl-piperidin-3-yl)-amide], for which the “G7330A: % Effect” value with AMPA receptors [1] is 43.7%. Moreover, the “G7330B (U): % Effect” value in the assay on AMPA receptors [2] (setting [3]) is 27.9% and 46.2% and 59.8% and 48.9% and 30.2% and 28.1%. Further, the EC50 in the assay on AMPA receptors [2] (setting [4]) and in the assay with AMPA receptors [2] (setting [5]) was greater than 32 µM each time.
Regarding `CC(C)S(=O)(=O)NC1CCNCC1c1ccc(-c2cc(Cl)ccc2Cl)cc1` (stereo not drawn) [Example 23, Propane-2-sulfonic acid[trans-3-(2′,5′-dichloro-biphenyl-4-yl)-piperidin-4-yl)]-amide], the “G7330B (U): % Effect” value in the assay on AMPA receptors [2] (setting [3]) was 10.1% and 9.71% and 6.91%. Also, the EC50 in the assay on AMPA receptors [2] (setting [4]) and with AMPA receptors [2] (setting [5]) was greater than 32 µM throughout.
For `CC(C)S(=O)(=O)NC1CCN(C)CC1c1ccc(-c2ccc(C#N)cc2)cc1` (stereo not drawn) [Example 24, Propane-2-sulfonic acid[trans-3-(4′-cyano-biphenyl-4-yl)-1-methyl-piperidin-4-yl]-amide], the “G7330B (U): % Effect” value in the assay with AMPA receptors [2] (setting [6]) is 14.5% and 19.9% and 12.7%. In addition, the EC50 with AMPA receptors [2] (setting [4]) and with AMPA receptors [2] (setting [5]) was greater than 31.6 µM in each case.
Regarding `CC(=O)N1CC[C@@H](NS(=O)(=O)C(C)C)[C@H](c2ccc(NC(=O)c3cc(F)cc(F)c3)cc2)C1` (relative stereo) [Example 40, N-{4-[trans-1-Acetyl-4-(propane-2-sulfonylamino)-piperidin-3-yl]-phenyl}-3,5-difluoro-benzamide], the “G7330B (U): % Effect” value with AMPA receptors [2] (setting [6]) was 152% and 179% and 176%. In addition, the EC50 with AMPA receptors [2] (setting [4]) and with AMPA receptors [2] (setting [5]) was 11.7 µM each time.
Turning to `CC(C)S(=O)(=O)NC1CCOCC1c1ccc(-c2ccccc2)cc1` (stereo not drawn) [Example 15, Propane-2-sulfonic acid(trans-3-biphenyl-4-yl-tetrahydro-pyran-4-yl)-amide], the “G7330B (U): % Effect” value in the assay on AMPA receptors [2] (setting [3]) is 108% and 109% and 101%. The EC50 with AMPA receptors [2] (setting [4]) is 2.84 µM and 3.14 µM and 5.42 µM; with AMPA receptors [2] (setting [5]) it was 3.64 µM.
`CC(C)S(=O)(=O)NC1CCN(C)CC1c1ccc(-c2ccccc2)cc1` (stereo not drawn) [Example 25, Propane-2-sulfonic acid(trans-3-biphenyl-4-yl-1-methyl-piperidin-4-yl)-amide]: in the assay on AMPA receptors [2] (setting [3]), the “G7330B (U): % Effect” value was −0.323% and 0.295% and 2.72%. Further, the EC50 in the assay with AMPA receptors [2] (setting [4]) and with AMPA receptors [2] (setting [5]) was greater than 32 µM each time.
Take `CC(C)S(=O)(=O)N[C@@H]1CCN(C)C[C@H]1c1ccc(NC(=O)c2cc(F)cc(F)c2)cc1` (relative stereo) [Example 45, 3,5-Difluoro-N-{4-[trans-1-methyl-4-(propane-2-sulfonylamino)-piperidin-3-yl]-phenyl}-benzamide]: the “G7330B (U): % Effect” value in the assay on AMPA receptors [2] (setting [6]) is −0.114% and 0.0432% and −0.344%. The half-maximal effective concentration (EC50) with AMPA receptors [2] (setting [4]) and in the assay with AMPA receptors [2] (setting [5]) was greater than 31.6 µM in each case.
Take `CC(=O)N1CCC(NS(=O)(=O)C(C)C)C(c2ccc(-c3ccccc3C#N)cc2)C1` (stereo not drawn) [Example 29, Propane-2-sulfonic acid[trans-1-acetyl-3-(2′-cyano-biphenyl-4-yl)-piperidin-4-yl]-amide]: the “G7330B (U): % Effect” value in the assay with AMPA receptors [2] (setting [6]) was 201% and 204% and 155% (2×) and 159% and 194% and 364% and 391% and 363% and 195% (3×) and 187% and 150% and 151% and 202%. The EC50 in the assay with AMPA receptors [2] (setting [4]) was 1.73 µM and 1.44 µM and 2.16 µM and 1.96 µM and 1.28 µM and 1.51 µM and 2.74 µM and 2.29 µM and 3.61 µM and 3.13 µM; in the assay on AMPA receptors [2] (setting [5]), 2.07 µM.
For `CC(C)S(=O)(=O)N[C@H]1CN(C)CC[C@@H]1c1ccc(-c2ccccc2)cc1` [Example 3, Propane-2-sulfonic acid ((3R,4R)-4-biphenyl-4-yl-1-methyl-piperidin-3-yl)-amide], in the assay on AMPA receptors [2] (setting [3]), the “G7330B (U): % Effect” value was 99.8% and 94.3% and 83.1% and 129% and 98.9% and 119%. In addition, the EC50 in the assay on AMPA receptors [2] (setting [5]) is greater than 4.2 µM.
On to `CC(C)S(=O)(=O)NC1CCN(S(C)(=O)=O)CC1c1ccc(-c2ccccc2)cc1` (stereo not drawn) [Example 26, Propane-2-sulfonic acid(trans-3-biphenyl-4-yl-1-methanesulfonyl-piperidin-4-yl)-amide], for which the “G7330B (U): % Effect” value in the assay with AMPA receptors [2] (setting [3]) is 13.3% and 10.8% and 9.95%. Besides, the EC50 with AMPA receptors [2] (setting [4]) and in the assay with AMPA receptors [2] (setting [5]) was greater than 32 µM each time.
Regarding `CC(C)S(=O)(=O)NC1COCCC1(O)c1ccc(-c2ccccc2)cc1` [Example 42, Propane-2-sulfonic acid((3R,4S)-rel-4-biphenyl-4-yl-4-hydroxy-tetrahydro-pyran-3-yl)-amide], in the assay on AMPA receptors [2] (setting [6]), the “G7330B (U): % Effect” value was 145% and 142% and 152%. Further, the EC50 in the assay on AMPA receptors [2] (setting [4]) and in the assay on AMPA receptors [2] (setting [5]) was 11.9 µM in each case.
Regarding `CCN1CC[C@@H](c2ccc(-c3ccccc3)cc2)[C@H](NS(=O)(=O)C(C)C)C1` (relative stereo) [Example 5, propane-2-sulfonic acid (trans-4-biphenyl-4-yl-1-ethyl-piperidin-3-yl)-amide], in the assay on AMPA receptors [2] (setting [6]), the “G7330B (U): % Effect” value is 76.3% and 78.8%. The EC50 in the assay on AMPA receptors [2] (setting [4]) and in the assay with AMPA receptors [2] (setting [5]) was greater than 31.6 µM in each case.
`CC(=O)N1CC[C@@H](NS(=O)(=O)C(C)C)[C@H](c2ccc(NC(=O)c3ccccc3)cc2)C1` (relative stereo) [Example 39, N-{4-[trans-1-Acetyl-4-(propane-2-sulfonylamino)-piperidin-3-yl]-phenyl}-benzamide]: the “G7330B (U): % Effect” value in the assay on AMPA receptors [2] (setting [6]) was 145% and 142%. The EC50 with AMPA receptors [2] (setting [4]) and with AMPA receptors [2] (setting [5]) was 20.2 µM each time.
Take `CC(C)S(=O)(=O)NC1CCNCC1c1ccc(-c2ccccc2)cc1` (stereo not drawn) [Example 18, Propane-2-sulfonic acid(trans-3-biphenyl-4-yl-piperidin-4-yl)-amide]: in the assay with AMPA receptors [2] (setting [3]), the “G7330B (U): % Effect” value is 5.77% and 3.59% and 3.97%. Besides, the EC50 in the assay on AMPA receptors [2] (setting [4]) and in the assay on AMPA receptors [2] (setting [5]) was greater than 32 µM in each case.
With `CC(C)S(=O)(=O)NC1COCCC1c1ccc(-c2ccc(F)cc2)cc1` (stereo not drawn) [Example 32, Propane-2-sulfonic acid[trans-4-(4′-fluoro-biphenyl-4-yl)-tetrahydro-pyran-3-yl]-amide], the “G7330B (U): % Effect” value in the assay with AMPA receptors [2] (setting [6]) is 120% and 127% and 115%. The EC50 in the assay with AMPA receptors [2] (setting [4]) and in the assay with AMPA receptors [2] (setting [5]) was 2.57 µM throughout.
For `CC(C)S(=O)(=O)N[C@@H]1COCC[C@H]1c1ccc(-c2ccccc2Cl)cc1` [Example 36, Propane-2-sulfonic acid[trans-4-(2′-chloro-biphenyl-4-yl)-tetrahydro-pyran-3-yl]-amide], the EC50 with AMPA receptors [2] (setting [4]) and with AMPA receptors [2] (setting [5]) was 7.04 µM throughout.
